“And” between values parts separate entries of the source, which are not always exact repeats. Equal values may be shown once.
Key:
platelets = experiment: Platelet count in rats; format: in vivo
Description: Supplementary Figure 7. Effect of AZD4320 and AZD4320-dendrimer conjugates on platelet count in rats. Data for dendrimers was collected from the same rats for which cardiovascular data were acquired (see Fig. 4a and b). Data for AZD4320 was collected from a non-cardiovascular study. Each symbol represent data from an individual rat. Colours representing each compound and dose are shown on the figure.
(1 picture or pasted object on this page, not shown here)

[1] = test system: luciferase-tagged Ri-1 tumour cells; experiment: Disseminated luciferase-tagged Ri-1 DLBCL model (bioluminescence); format: in vivo, C.B-17 SCID mouse
Experimental: Ten million luciferase-tagged Ri-1 tumour cells were injected intravenously in the tail vein of C.B.−17 SCID female mice in a volume of 0.1 ml. Tumour burden (determined by Xenogen IVIS imaging), body weight and health condition were recorded twice weekly for the duration of the study. For Xenogen imaging, mice received an intraperitoneal administration of 150 mg/kg D- Luciferin 10 to 15 minutes prior to imaging. Imaging was performed under isoflurane anaesthesia and data analyzed using Living Image software (Xenogen). Statistical significance was evaluated using non-parametric, unpaired, two-tailed t-test.

OCI-LY10 xenograft = OCI-LY10 xenograft efficacy and survival; format: in vivo, C.B-17 SCID mouse; design: OCI-LY10 xenograft efficacy, individual animals: unit not given here; conditions: for OCI-LY10 xenograft efficacy, individual animals: AZD0466 103 mg/kg (30mg/kg AZD4320)
Experimental: Female C.B.−17 SCID mice were purchased from Charles River Laboratories. Mice were 5–8 weeks old at the time of tumour implantation. All xenograft studies were conducted at our Association for the Assessment and Accreditation of Laboratory Animal Care accredited facility in Waltham, MA in accordance with ethical regulations described in the guidelines established by the internal Institutional Animal Care and Use Committee. The dendrimer conjugates were formulated in citrate/phosphate buffer pH 5.0, diluted 1:10 with 5% glucose containing 1% w/v Kolliphor HS15, and AZD4320 was formulated in 30% HP-β-CD and dosed as a weekly intravenous (IV) administration at a volume of 5 ml/kg at the indicated doses. Five million RS4;11, five million SUDHL-4 or five million OCI-LY-10 cells were injected subcutaneously in the right flank of mice in a volume of 0.1 ml. Tumour volumes (measured by caliper), animal body weight, and tumor condition were recorded twice weekly for the duration of the study. The tumour volume was calculated (taking length to be the longest diameter across the tumour and width to be the corresponding perpendicular diameter) using the formula: length (mm) x width (mm)^2/0.52. For efficacy studies, mice were randomized based on tumour volumes using stratified sampling and enrolled into control and treatment groups. Tumour growth inhibition from the start of treatment was quantified by measuring the difference in tumour volume between control and treated groups. Survival analysis was evaluated using Mantel-Cox test. Tumours were also taken for bioanalysis.

In the case of `CN(CCO)CCC(CSc1ccccc1)Nc1ccc(S(=O)(=O)NC(=O)c2ccc(N3CCC(C(O)c4ccccc4-c4ccc(Cl)cc4)CC3)cc2)cc1S(=O)(=O)C(F)(F)F` (stereo not shown) [AZD4320], the “Platelet count, individual rat” value (platelets; 10mg/kg, Day 2 (3h post dose), 10 mg/kg) is reported as 31 10^9/L and 28 10^9/L and 46 10^9/L and 13 10^9/L and the Platelets post-dose (platelets; rat, Dose 10 mg/kg (AZD4320 equivalent 10 for AZD4320, 3 for conjugates)) is reported as 30 109/l.
In the case of AZD4320-MIDA-PEG2100 [AZD0466], the “Raw bioluminescence counts in individual animals” value (from here on “Raw bioluminescence counts”) ([1]; AZD0466 34 mg/kg (10mg/kg AZD4320), day 1) is reported as 1011000 counts and 1455000 counts and 962000 counts and 1223000 counts and 856300 counts, the “Raw bioluminescence counts” value ([1]; AZD0466 34 mg/kg (10mg/kg AZD4320), day 4) is reported as 1131000 counts and 1477000 counts and 863000 counts and 1453000 counts and 1099000 counts and the “Raw bioluminescence counts” value ([1]; AZD0466 34 mg/kg (10mg/kg AZD4320), day 8) is reported as 2077000 counts and 2641000 counts and 963600 counts and 3688000 counts and 1848000 counts. The “Raw bioluminescence counts” value ([1]; AZD0466 34 mg/kg (10mg/kg AZD4320), day 11) was 2663000 counts and 3475000 counts and 794700 counts and 3942000 counts and 2369000 counts, the “Raw bioluminescence counts” value ([1]; AZD0466 34 mg/kg (10mg/kg AZD4320), day 15) was 3909000 counts and 5355000 counts and 1268000 counts and 8178000 counts and 3745000 counts and the “Raw bioluminescence counts” value ([1]; AZD0466 103 mg/kg (30mg/kg AZD4320), day 1) was 1023000 counts and 885100 counts and 876200 counts and 2011000 counts and 1243000 counts. For the same compound, the “Raw bioluminescence counts” value ([1]; AZD0466 103 mg/kg (30mg/kg AZD4320), day 4) was 712200 counts and 758000 counts and 861600 counts and 963300 counts and 1088000 counts, the “Raw bioluminescence counts” value ([1]; AZD0466 103 mg/kg (30mg/kg AZD4320), day 8) was 888700 counts and 911000 counts and 1080000 counts and 921400 counts and 1303000 counts and the “Raw bioluminescence counts” value ([1]; AZD0466 103 mg/kg (30mg/kg AZD4320), day 11) was 687900 counts and 678400 counts and 868400 counts and 651900 counts and 817800 counts. For the same compound, the “Raw bioluminescence counts” value ([1]; AZD0466 103 mg/kg (30mg/kg AZD4320), day 15) was 1023000 counts and 956600 counts and 1075000 counts and 787100 counts and 1030000 counts, the “Raw bioluminescence counts” value ([1]; AZD0466 340 mg/kg (100mg/kg AZD4320), day 1) was 851500 counts and 1286000 counts and 895800 counts and 1120000 counts and 1558000 counts and the “Raw bioluminescence counts” value ([1]; AZD0466 340 mg/kg (100mg/kg AZD4320), day 4) was 675300 counts and 732000 counts and 775100 counts and 773400 counts and 665700 counts. For the same compound, the “Raw bioluminescence counts” value ([1]; AZD0466 340 mg/kg (100mg/kg AZD4320), day 8) was 696900 counts and 758300 counts and 613100 counts and 757700 counts and 754200 counts, the “Raw bioluminescence counts” value ([1]; AZD0466 340 mg/kg (100mg/kg AZD4320), day 11) was 628500 counts and 817700 counts and 761500 counts and 744200 counts and 883400 counts and the “Raw bioluminescence counts” value ([1]; AZD0466 340 mg/kg (100mg/kg AZD4320), day 15) was 1033000 counts and 1121000 counts and 987400 counts and 873700 counts and 861800 counts. The “anti-tumour activity” value ([1]; disseminated Ri-1, once weekly IV) was “dose-dependent anti-tumour activity”, the “OCI-LY10 xenograft efficacy, individual animals” value (shortened to “OCI-LY10 xenograft efficacy”) (OCI-LY10 xenograft; day 18) was 193 and 170 and 155 and 173 and 235 and 111 and 163 and 131 and the “OCI-LY10 xenograft efficacy” value (OCI-LY10 xenograft; day 21) was 363 and 334 and 195 and 394 and 490 and 191 and 262 and 142. For the same compound, the “OCI-LY10 xenograft efficacy” value (OCI-LY10 xenograft; day 25) was 214 and 151 and 62 and 129 and 351 and 181 and 222 and 188, the “OCI-LY10 xenograft efficacy” value (OCI-LY10 xenograft; day 28) was 475 and 406 and 118 and 241 and 485 and 190 and 184 and 194 and the “OCI-LY10 xenograft efficacy” value (OCI-LY10 xenograft; day 32) was 410 and 443 and 252 and 338 and 536 and 215 and 401 and 301. The “OCI-LY10 xenograft efficacy” value (OCI-LY10 xenograft; day 35) was 664 and 595 and 309 and 391 and 667 and 265 and 496 and 262, the “OCI-LY10 xenograft efficacy” value (OCI-LY10 xenograft; day 39) was 653 and 578 and 346 and 432 and 638 and 281 and 354 and 330 and the “OCI-LY10 xenograft efficacy” value (OCI-LY10 xenograft; day 42) was 773 and 918 and 408 and 717 and 707 and 404 and 319 and 272. The “mice with complete regressions” value (OCI-LY10 xenograft; OCI-LY10, AZD0466 in combination with acalabrutinib) was 8/8 and the “monotherapy activity” value (OCI-LY10 xenograft; OCI-LY10 DLBCL model) was “neither agent showed any demonstrable monotherapy activity”.

— article PMC7835349 (Communications Biology, 2021)
